In patent US20170071975A1, “COMPOSITIONS AND METHODS FOR TREATING DEPRESSIVE DISORDERS” (Steerwasher, LLC, priority 2014, published 2017):

What was measured:
[1] = tested on: patients with treatment-resistant depression; assay: Blinded, randomized placebo-controlled crossover trial; 21-point Hamilton Depression Rating Scale (HDRS/HRDS); type: in vivo, human
From the text: (§1) Primary endpoint was the change on the 21-point Hamilton Depression Rating Scale (HRDS).
(§2) This study was designed as a randomized, placebo-controlled crossover pilot clinical trial. […] The order of the session was randomly assigned by a random number generator. Other than the gas mixture administered, both sessions were indistinguishable from each other in setting, setup, and monitoring.
Patients were recruited from an existing database of treatment-resistant depression patients administered by the Washington University Department of Psychiatry as well as from the “Volunteers for Health” patient pool within the Washington University School of Medicine. […] Patients were instructed not to suspend their standard of care treatment for major depression. Patients were required to maintain a stable medication regiment without changes for 4 weeks prior to initiation of the study and continue on the same dose throughout.
(§3) The gas mix was administered via a standard anesthesia facemask through tubing connected to an anesthesia machine. A small sample connector line was inserted into the facemask allowing the measurement of inhaled and exhaled gas concentrations. Total gas flow was between 4-8 L/min. Patients were monitored during and after the treatment according to American Society of Anesthesiologists standard which includes continuous 3-lead ECG, pulsoximetry, non-invasive blood pressure and end-tidal CO2 under the supervision of an attending-level anesthesiologists. After the one-hour treatment session, patients were transferred and monitored for 2 hours. A study team physician determined if the patients met criteria for discharge before patients were discharged.
(§4) Outcomes were assessed at six time points for each patient (three per session; two sessions): within each session at baseline, 2 hours, and 24 hours after treatment. Primary study endpoint was the change on the 21-point Hamilton Depression Rating Scale (HDRS). Secondary endpoints included a change on the Quick Inventory of Depressive Symptoms Self Report (QIDS-SR) scale. At baseline, the Brief Psychiatric Rating Scale (BPRS) was also administered. Psychiatric safety endpoints were assessed via standard scales for psychosis and the Columbia suicide scale. Other safety endpoints included cardiovascular, respiratory and central nervous system adverse events determined by hemodynamic and respiratory monitoring.
The primary outcome was analyzed with a mixed effects repeated measures linear model that included three interactions (treatment; time; randomization group) using restricted maximum likelihood estimation.
For the analysis of paired data, such as the levels of HRDS, we used the Wilcoxon signed-rank test. To compare the rates of treatment responses and remissions between the two treatments and using the paired data structure, an exact binomial test was used (and corresponding odds ratios calculated) as the number of discordant pairs was <20. Data are presented as mean±SD or 95% confidence intervals, or as median and interquartile range. Because this is the first in-human patient pilot study, no prior knowledge existed for adequate sample size determination. […] JMP Pro 11.1 and SAS 9.3 (SAS Institute, Cary, N.C.), as well as Prism 6.04 (GraphPad Software, Inc., La Jolla, Calif.) were used for the statistical analysis and graphing.

[2] = tested on: patients with treatment-resistant depression; assay: Same crossover trial; Quick Inventory of Depressive Symptoms Self Report (QIDS-SR) scale; type: in vivo, human; settings: Table 4
Protocol: as §1, §2, §3, §4

[3] = tested on: patients with treatment-resistant depression; set-up: species or system human; settings: in vivo
Protocol: as §3
as §4, with “monitoring. Nitrous oxide-induced inactivation of vitamin B12 was determined by measurement of plasma total homocysteine before and after treatment.” for “monitoring.”

[4] = 24 hours after treatment, HRDS levels

## [N-]=[N+]=O [nitrous oxide]
[1]; [4]
  Change in Level of Depression Severity: Better, 1 level (patients): 7/20
  Change in Level of Depression Severity: Better, 1 level (percent): (35%)
  Change in Level of Depression Severity: Better, 2 levels (patients): 3/20
  Change in Level of Depression Severity: Better, 2 levels (percent): (15%)
  Change in Level of Depression Severity: Better, 3 levels (patients): 3/20
  Change in Level of Depression Severity: Better, 3 levels (percent): (15%)
  Change in Level of Depression Severity: Better, 4 levels (patients): 1/20
  Change in Level of Depression Severity: Better, 4 levels (percent): (5%)
  Change in Level of Depression Severity: Neutral, 0 (patients): 6/20
  Change in Level of Depression Severity: Neutral, 0 (percent): (30%)
  Change in Level of Depression Severity: Worse, 1 level (patients): 0
[1]; 24 hours after treatment, full cohort (20 patients), 50% nitrous oxide/50% oxygen for 1 hour, compared to baseline and placebo
  mean change in HDRS score: −5.5 points
[1]; 24 hours, 20 patients
  full remission rate (HRDS <7 points): 15%
  treatment response rate (reduction >50% on the HRDS): 20%
[1]; 24 hours, first treatment session only (10 patients who received nitrous oxide first)
  mean reduction of HRDS: −8.6 points
[1]; 24 hours, out of twenty patients, five severity levels
  patients with at least a 2-level improvement of depression severity on the HRDS: 7 patients
[1]; 24 hours, twenty patients
  patients with at least a 2-level improvement of depression severity on the HRDS, percent: 35%
[1]; after a single, one-hour treatment with 50% nitrous oxide
  duration of antidepressant effects: at least 24 hours
[1]; full cohort
  mean reduction in depressive symptoms on HRDS: 5.5 points
[1]; ten patients who received the nitrous oxide treatment first
  mean reduction in depressive symptoms on HRDS: 8.6 points
[2]
  response on the QIDS scale: change 0 (percent): 50%
  response on the QIDS scale: change of 1 level, first arrow (P00003, presumably worse) (percent): 10%
  response on the QIDS scale: change of 1 level, second arrow (P00004, presumably better) (percent): 15%
  response on the QIDS scale: change of 2 levels, second arrow (P00004, presumably better) (percent): 25%
[3]; human, 1 h
  Adverse Event: Anxiety: 2
  Adverse Event: Anxiety (percent): (10%)
  Adverse Event: Claustrophobia: 1 no.
  Adverse Event: Claustrophobia (percent): (5%)
  Adverse Event: Dizziness/Lightheadedness: 1 no.
  Adverse Event: Dizziness/Lightheadedness (percent): (5%)
  Adverse Event: Headache: 2 no.
  Adverse Event: Headache (percent): (10%)
  Adverse Event: Hypercapnia: 0
  Adverse Event: Hyperventilation: 1 no.
  Adverse Event: Hyperventilation (percent): (5%)
  Adverse Event: Nausea and vomiting: 3 no.
  Adverse Event: Nausea and vomiting (percent): (15%)
  Adverse Event: Numbness/Paresthesia: 2
  Adverse Event: Numbness/Paresthesia (percent): (10%)
  Adverse Event: Panic Attack: 1
  Adverse Event: Panic Attack (percent): (5%)
  Adverse Event: Regurgitation: 1 no.
  Adverse Event: Regurgitation (percent): (5%)
[3]
  course of adverse events: temporary and resolved shortly after completion
  patients in whom the treatment had to be interrupted or discontinued due to adverse events: five
  patients who completed the full 60-minute treatment: Fifteen
  psychotomimetic side effects (delusion, hallucination): appeared to be devoid of psychotomimetic side effects
